# Patent US20230322767A1, “ARYL SUBSTITUTED PYRROLO-PYRIDINONES AND THERAPEUTIC USES THEREOF” (Bayer Aktiengesellschaft, priority 2020, published 2023)
# Where two headings read alike, the source gives them in different places.
# Legend:
# Type in all cases: biochemical
# CSNK1A1 = CSNK1A1 (Homo sapiens (Human), UniProt P48729); experiment: CSNK1A1 Assay 2 (ADP-Glo, 1 μM ATP); settings: median, read-out: CSNK1A1 Assay 2 IC50 [mol/l] (median)
# Summary of the method: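 Enzyme (~0.0375 ng/μL) preincubated 15 min at 22° C with compound in HEPES pH 7.5 buffer, then reacted with 1 μM ATP and biotin-Ahx-KRRRAL-pS-VASLPGL peptide. ADP product measured by ADP-Glo luminescence after 1 h ATP depletion and 1 h detection at 22° C.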
# [1] = molecular target: wild-type Epidermal Growth Factor Receptor (EGFR) (Homo sapiens (Human), UniProt P00533); experiment: WT-EGFR Kinase Assay (TR-FRET, 2 mM ATP)
# wild-type Epidermal Growth Factor Receptor (EGFR), sequence (P00533 669-1210): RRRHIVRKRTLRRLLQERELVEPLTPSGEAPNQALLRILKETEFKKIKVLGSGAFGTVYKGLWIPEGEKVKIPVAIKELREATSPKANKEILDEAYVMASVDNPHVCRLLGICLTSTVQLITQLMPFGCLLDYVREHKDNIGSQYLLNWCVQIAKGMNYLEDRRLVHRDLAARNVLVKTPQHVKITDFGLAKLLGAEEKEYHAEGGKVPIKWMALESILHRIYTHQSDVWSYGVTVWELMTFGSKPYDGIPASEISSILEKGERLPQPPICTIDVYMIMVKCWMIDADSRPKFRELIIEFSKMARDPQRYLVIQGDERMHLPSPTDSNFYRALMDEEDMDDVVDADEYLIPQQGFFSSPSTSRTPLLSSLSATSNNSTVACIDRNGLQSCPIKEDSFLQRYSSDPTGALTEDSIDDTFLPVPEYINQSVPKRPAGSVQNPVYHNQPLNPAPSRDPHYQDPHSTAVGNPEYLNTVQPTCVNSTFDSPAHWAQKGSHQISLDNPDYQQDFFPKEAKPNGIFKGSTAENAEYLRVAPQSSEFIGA
# Summary of the method: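 GST-tagged human EGFR (R669–A1210, Sf9-expressed) preincubated 15 min at 22° C with compound in pH 7.0 Hepes/MgCl2 buffer, then reacted at 2 mM ATP with a biotinylated peptide substrate. Phosphorylation detected by TR-FRET (streptavidin-XL665, Tb-cryptate anti-phosphotyrosine) as the 665/620 nm emission ratio.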
# CSNK1D = CSNK1D (Homo sapiens (Human), UniProt P48730); experiment: CSNK1D Assay (ADP-Glo, 1 μM ATP); settings: median, read-out: CSNK1D IC50 [mol/l] (median)
# CSNK1D, sequence (P48730 whole entry): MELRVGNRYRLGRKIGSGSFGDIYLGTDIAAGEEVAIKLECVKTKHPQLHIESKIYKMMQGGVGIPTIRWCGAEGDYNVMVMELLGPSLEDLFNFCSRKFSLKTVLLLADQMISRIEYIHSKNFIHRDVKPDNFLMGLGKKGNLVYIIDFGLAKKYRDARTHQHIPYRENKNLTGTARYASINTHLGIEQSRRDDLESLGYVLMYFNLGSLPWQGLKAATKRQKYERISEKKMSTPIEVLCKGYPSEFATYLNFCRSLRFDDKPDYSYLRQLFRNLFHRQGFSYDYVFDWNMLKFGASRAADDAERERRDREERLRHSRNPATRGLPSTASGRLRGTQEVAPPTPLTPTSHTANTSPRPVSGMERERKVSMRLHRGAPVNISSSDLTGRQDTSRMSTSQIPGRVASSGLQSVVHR
# Summary of the method: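 Enzyme preincubated with compound 15 min at 22° C in 50 mM HEPES pH 7.5 buffer with 10 mM MgCl2, 1 mM DTT; kinase reaction run at 1 μM ATP with biotinylated peptide substrate. ADP formed was detected by ADP-Glo luminescence as the measure of activity.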
# [2] = EGFR Wildtyp 2 mM ATP IC50 [mol/l] (median), median or individual measurements
# [3] = read-out: EGFR Wildtyp 2 mM ATP IC50 [mol/l] (median), median or individual measurements
# CSNK1A1, sequence (P48729 whole entry): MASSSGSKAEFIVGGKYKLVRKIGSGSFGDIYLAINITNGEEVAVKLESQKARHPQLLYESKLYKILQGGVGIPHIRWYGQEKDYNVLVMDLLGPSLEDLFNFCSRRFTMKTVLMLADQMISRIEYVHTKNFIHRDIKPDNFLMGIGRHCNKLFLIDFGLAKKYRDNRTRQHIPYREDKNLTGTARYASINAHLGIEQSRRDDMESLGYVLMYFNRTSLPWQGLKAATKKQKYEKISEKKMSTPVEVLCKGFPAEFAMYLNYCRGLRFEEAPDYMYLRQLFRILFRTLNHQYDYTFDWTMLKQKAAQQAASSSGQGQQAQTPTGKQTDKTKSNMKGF
Structure (SMILES),IC50 (CSNK1A1),"IC50 [1, 2]",IC50 (CSNK1D),"IC50 [1, 3]"
"CN1CCc2[nH]c(-c3ccnc(NC(=O)C(CC(F)F)c4ccc(F)cc4)c3)c(-c3ccc(F)cc3)c2C1=O (racemic) [Example 139, 4,4-difluoro-2-(4-fluorophenyl)-N-{4-[3-(4-fluorophenyl)-5-methyl-4-oxo-4,5,6,7-tetrahydro-1H-pyrrolo[3,2-c]pyridin-2-yl]pyridin-2-yl}butanamide]",4.2 nM,> 20000 nM,5.5 nM,
"CC(C(=O)Nc1cc(-c2[nH]c3ccn(C)c(=O)c3c2-c2ccc(F)nc2)ccn1)c1ccc(F)cc1 (racemic) [Example 145, 2-(4-fluorophenyl)-N-{4-[3-(6-fluoropyridin-3-yl)-5-methyl-4-oxo-4,5-dihydro-1H-pyrrolo[3,2-c]pyridin-2-yl]pyridin-2-yl}propanamide]",9.7 nM,> 20000 nM,10 nM,
"Cn1cc(CC(F)F)c2[nH]c(-c3ccnc(NC(=O)C(CC(F)F)c4ccc(F)cc4)c3)c(-c3ccccc3)c2c1=O (racemic) [Example 147, (rac)-N-{4-[7-(2,2-difluoroethyl)-5-methyl-4-oxo-3-phenyl-4,5-dihydro-1H-pyrrolo[3,2-c]pyridin-2-yl]pyridin-2-yl}-4,4-difluoro-2-(4-fluorophenyl)butanamide]",4.3 nM,> 20000 nM,2.9 nM,
"CN1CC(C)(C)c2[nH]c(-c3ccnc(NC(=O)C(CC(F)F)c4ccc(F)cc4)c3)c(-c3ccccc3)c2C1=O (racemic) [Example 150, (rac)-4,4-difluoro-2-(4-fluorophenyl)-N-[4-(5,7,7-trimethyl-4-oxo-3-phenyl-4,5,6,7-tetrahydro-1H-pyrrolo[3,2-c]pyridin-2-yl)pyridin-2-yl]butanamide]",4.1 nM,> 20000 nM,3.8 nM,
"CC(C(=O)Nc1cc(-c2[nH]c3c(c2-c2ccccc2)C(=O)N(C)CC3)ccn1)c1ccncc1 (racemic) [Example 153, (Rac)-N-[4-(5-methyl-4-oxo-3-phenyl-4,5,6,7-tetrahydro-1H-pyrrolo[3,2-c]pyridin-2-yl)pyridin-2-yl]-2-(pyridin-4-yl)propanamide]",2 nM,> 20000 nM,2.4 nM,
"O=C(Nc1cc(-c2[nH]c3c(c2-c2ccccc2)C(=O)N(C2CC2)CC3)ccn1)C(CC(F)F)c1ccc(F)cc1 (racemic) [Example 156, (2RS)—N-(4-(5-cyclopropyl-4-oxo-3-phenyl-4,5,6,7-tetrahydro-1H-pyrrolo[3,2-c]pyridin-2-yl)pyridin-2-yl)-4,4-difluoro-2-(4-fluorophenyl)butanamide]",2.3 nM,> 20000 nM,3.1 nM,
"O=C(Nc1cc(-c2[nH]c3ccn(C4CC4)c(=O)c3c2-c2ccccn2)ccn1)C(CC(F)F)c1ccc(F)cc1 (racemic) [Example 160, (2RS)—N-{4-[5-cyclopropyl-4-oxo-3-(pyridin-2-yl)-4,5-dihydro-1H-pyrrolo[3,2-c]pyridin-2-yl]pyridin-2-yl}-4,4-difluoro-2-(4-fluorophenyl)butanamide]",8.7 nM,> 20000 nM,10 nM,
"O=C(Nc1cc(-c2[nH]c3c(Cl)cn(C4CC4)c(=O)c3c2-c2ccc(F)cc2)ccn1)C(CC(F)F)c1ccc(F)cc1 (racemic) [Example 161, (2RS)—N-{4-[7-chloro-5-cyclopropyl-3-(4-fluorophenyl)-4-oxo-4,5-dihydro-1H-pyrrolo[3,2-c]pyridin-2-yl]pyridin-2-yl}-4,4-difluoro-2-(4-fluorophenyl)butanamide]",20 nM,> 20000 nM,11 nM,
"Cn1cc(CC(F)(F)F)c2[nH]c(-c3ccnc(NC(=O)C(CC(F)F)c4ccc(F)cc4)c3)c(-c3ccccn3)c2c1=O (racemic) [Example 162, (2RS)-4,4-difluoro-2-(4-fluorophenyl)-N-{4-[5-methyl-4-oxo-3-(pyridin-2-yl)-7-(2,2,2-trifluoroethyl)-4,5-dihydro-1H-pyrrolo[3,2-c]pyridin-2-yl]pyridin-2-yl}butanamide]",14 nM,> 20000 nM,12 nM,
"CN1CCc2[nH]c(-c3ccnc(NC(=O)C(CC(F)F)c4ccc(F)cc4)c3)c(-c3ccc(F)cc3F)c2C1=O (single isomer, unassigned) [Example 67, N-{4-[3-(2,4-difluorophenyl)-5-methyl-4-oxo-4,5,6,7-tetrahydro-1H-pyrrolo[3,2-c]pyridin-2-yl]pyridin-2-yl}-4,4-difluoro-2-(4-fluorophenyl)butanamide]",16 nM,> 20000 nM,8.6 nM,
"CN1CCc2[nH]c(-c3ccnc(NC(=O)C(CC(F)F)c4ccc(F)cc4)c3)c(-c3ccc(F)cc3F)c2C1=O (single isomer, unassigned) [Example 68, N-{4-[3-(2,4-difluorophenyl)-5-methyl-4-oxo-4,5,6,7-tetrahydro-1H-pyrrolo[3,2-c]pyridin-2-yl]pyridin-2-yl}-4,4-difluoro-2-(4-fluorophenyl)butanamide]",4.1 nM,,5.6 nM,> 20000 nM
"CC(C(=O)Nc1cc(-c2[nH]c3c(c2-c2ccc(F)cc2F)C(=O)N(C)CC3)ccn1)c1ccc(F)cc1 (single isomer, unassigned) [Example 70, N-{4-[3-(2,4-difluorophenyl)-5-methyl-4-oxo-4,5,6,7-tetrahydro-1H-pyrrolo[3,2-c]pyridin-2-yl]pyridin-2-yl}-2-(4-fluorophenyl)propanamide]",16 nM,> 20000 nM,7.6 nM,
"CC(C(=O)Nc1cc(-c2[nH]c3c(c2-c2ccc(F)cc2F)C(=O)N(C)CC3)ccn1)c1ccc(F)cc1 (single isomer, unassigned) [Example 71, N-{4-[3-(2,4-difluorophenyl)-5-methyl-4-oxo-4,5,6,7-tetrahydro-1H-pyrrolo[3,2-c]pyridin-2-yl]pyridin-2-yl}-2-(4-fluorophenyl)propanamide]",1.7 nM,,2.1 nM,> 20000 nM
"CC(C(=O)Nc1cc(-c2[nH]c3c(c2-c2ccc(F)cc2)C(=O)NC(C)(C)C3)ccn1)c1ccc(F)cc1 (single isomer, unassigned) [Example 95, 2-(4-fluorophenyl)-N-{4-[3-(4-fluorophenyl)-6,6-dimethyl-4-oxo-4,5,6,7-tetrahydro-1H-pyrrolo[3,2-c]pyridin-2-yl]pyridin-2-yl}propanamide]",14 nM,> 20000 nM,4.6 nM,
"CC(C(=O)Nc1cc(-c2[nH]c3c(c2-c2ccc(F)cc2)C(=O)NC(C)(C)C3)ccn1)c1ccc(F)cc1 (single isomer, unassigned) [Example 96, 2-(4-fluorophenyl)-N-{4-[3-(4-fluorophenyl)-6,6-dimethyl-4-oxo-4,5,6,7-tetrahydro-1H-pyrrolo[3,2-c]pyridin-2-yl]pyridin-2-yl}propanamide]",1.3 nM,,2 nM,> 20000 nM
"CC(C(=O)Nc1cc(-c2[nH]c3c(c2-c2cccnc2)C(=O)NC(C)(C)C3)ccn1)c1ccc(F)cc1 (single isomer, unassigned) [Example 98, N-{4-[6,6-dimethyl-4-oxo-3-(pyridin-3-yl)-4,5,6,7-tetrahydro-1H-pyrrolo[3,2-c]pyridin-2-yl]pyridin-2-yl}-2-(4-fluorophenyl)propanamide]",71 nM,> 20000 nM,19 nM,
"CC(C(=O)Nc1cc(-c2[nH]c3c(c2-c2cccnc2)C(=O)NC(C)(C)C3)ccn1)c1ccc(F)cc1 (single isomer, unassigned) [Example 99, N-{4-[6,6-dimethyl-4-oxo-3-(pyridin-3-yl)-4,5,6,7-tetrahydro-1H-pyrrolo[3,2-c]pyridin-2-yl]pyridin-2-yl}-2-(4-fluorophenyl)propanamide]",4.3 nM,,5.5 nM,> 20000 nM
"CC(C(=O)Nc1cc(-c2[nH]c3ccn(C)c(=O)c3c2-c2ccccc2)ccn1)c1ccc(F)cc1 (single isomer, unassigned) [Example 104, 2-(4-fluorophenyl)-N-[4-(5-methyl-4-oxo-3-phenyl-4,5-dihydro-1H-pyrrolo[3,2-c]pyridin-2-yl)pyridin-2-yl]propanamide]",7 nM,> 20000 nM,5.1 nM,
"CC(C(=O)Nc1cc(-c2[nH]c3ccn(C)c(=O)c3c2-c2ccccc2)ccn1)c1ccc(F)cc1 (single isomer, unassigned) [Example 105, 2-(4-fluorophenyl)-N-[4-(5-methyl-4-oxo-3-phenyl-4,5-dihydro-1H-pyrrolo[3,2-c]pyridin-2-yl)pyridin-2-yl]propanamide]",0.71 nM,8220 nM,1.5 nM,
"Cn1cc(CC(F)F)c2[nH]c(-c3ccnc(NC(=O)C(CC(F)F)c4ccc(F)cc4)c3)c(-c3ccccc3)c2c1=O (single isomer, unassigned) [Example 148, N-{4-[7-(2,2-difluoroethyl)-5-methyl-4-oxo-3-phenyl-4,5-dihydro-1H-pyrrolo[3,2-c]pyridin-2-yl]pyridin-2-yl}-4,4-difluoro-2-(4-fluorophenyl)butanamide]",12 nM,8750 nM,6.8 nM,
